Test results from patent publication US11168052B2, “Carbamate derivative compounds, processes for preparing them and their uses” (BIO-PHARM SOLUTIONS CO., LTD., priority 2016, dated 2021).

Experiments:
[1] = test system: ICR mice, tail-flick analgesia meter; test: Tail-flick test; type: in vivo; conditions: orally, withdrawal latency
Experimental: To examine the pain relief effect of the carbamate compounds, a tail-flick test was conducted, referring to Current Protocols in Neuroscience; Behavioral Neuroscience Unit 8.9.
(§1) ICR mice (male, 25-30g; Orient Bio, Korea) were habituated before test (in test room) for 1 hour. Animals were fasted 2 hr before administration of compounds. Each of Compound was orally administered at the 1-3 dose, 10 ul/g, by bodyweight (n=4-6/group). All compounds were dissolved in a vehicle of 30% (v/v) PEG 400 or 20% (v/v) Tween 80. The control group was treated the vehicle without compounds.
After the administration of compounds, the mice tail were put on a tail-flick analgesia meter. To avoid tissue damage, maximal exposure time to pain stimuli was restricted to 15 s. The withdrawal latency was measured to the time to the point when each mouse responded. The relative values compared to the control (% control) were calculated.
The relative values compared to the sham were calculated and shown in Table 7, which show effect of the compound of examples on tail-flick test in Mice.

[2] = test system: CFA-induced pain model in rats; test: Antiallodynic activity on Complete Freund's Adjuvant (CFA)-induced inflammatory pain model; type: in vivo, Sprague-Dawley rats; conditions: Rattus norvegicus, ip, 50 mg/kg intraperitoneally, von Frey threshold relative to sham, 0.5 hr after administration, read-out: Efficacy of 50 mg/kg(%)
Outline: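 Male Sprague-Dawley rats given 100 ul CFA intraplantar in the right hind paw; one week later, ipsilateral mechanical allodynia (baseline threshold <4 g required) assessed with von Frey up-and-down method, 50% withdrawal threshold by Dixon formula. Compounds 50 mg/kg i.p. in 30% PEG or 20% Tween 80, tested 0.5 h post-dose; values as % of sham.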

ICR mice on hot plate = test: Hot-plate test; type: in vivo; conditions: Mus musculus, po, orally, withdrawal latency
Experimental: To examine the pain relief effect of the carbamate compounds, a hot-plate test was conducted in referring to Current Protocols in Neuroscience; Behavioral Neuroscience Unit 8.9.
as §1, with “25-28 g;” for “25-30g;”, “Compounds were” for “Each of Compound was”, “three” for “1-3”
0.25-2.0 hr after the administration of compounds, the mice were put on a hot plate pre-heated to 55±1 (Hu, X. et al, 2008), and then, the withdrawal latency time was measured (cut-off time: 30 sec) until the point when each mouse was taking a paw off from the plate, shaking, licking a paw or hind leg, or jumping from the plate.

[3] = test system: acetic acid-induced writhes in ICR mice; test: Writhing test (acetic acid); type: in vivo; conditions: Mus musculus, po
Experimental: To examine the pain relief effect of the carbamate compounds, a writhing test was conducted, referring to Fischer, L. G. et al. (2008).
as §1, with “24-28g;” for “25-30g;”, “compounds” for “Compound”, “three” for “1-3”, “bw (n=3-5/group).” for “by bodyweight (n=4-6/group).”
0.2-2 hour after the administration of compounds, 0.6% acetic acid at the dose of 10 ul/g by bodyweight was injected into the mice Animals were habituated in the cage for 5 min. 5 min after habituation, the number of writhes (abdominal constriction) was counted for 15 min, referring to Korzeniewska-Rybicka, I. et al. (1998) and compared with that of a control.
The relative values compared to the control (% control) were calculated and shown in […]

[4] = test system: PTZ (Pentylenetetrazol)-induced clonic seizure in rats; test: Anti-epilepsy activity, scPTZ test in rats; type: in vivo, SD rats; conditions: Rattus norvegicus, ip
Description: In this experiment, each test compound sample was formulated as described in Biological Experimental Example 1, and administered intraperitoneally to the test animals (mice; ICR or Rat; SD); Experimental animals, male ICR mice and male SD rats, were purchased from OrientBio or Nara biotech, Korea, and housed 4-5 mice per a cage for 4-5 days. The range of mice body weight was used between 19 and 26 grams and range of rats body weight was used between 100 and 130 grams. After Peak time (0.5, 1, 2 and 4 hr) from the administration, PTZ (Pentylenetetrazol) was administered subcutaneously in the concentration capable of inducing 97% intermittent convulsions (mice: 100-110 mg/kg?bw, 10 μl/g, or rats: 90-110 mg/kg?bw, 2 μl/g). If clonic seizure was not observed for at least 30 minutes in the PTZ administered animal, it can be considered that the test compound has anti-epilepsy activity. The median effective dose (ED50) is determined using 6 animals per a concentration (total three different concentrations), and calculated by Litchfield and Wicoxon log-probit method which is a dose-response relationship.

| Structure (SMILES) | Tail-flick test Dose [1] | response vs control in vivo at 50 mg/kg [2] | ED50 (ICR mice on hot plate) | ED50 [3] | ED50 [4] |
| --- | --- | --- | --- | --- | --- |
| NC(=O)O[C@@H]1CCc2cccc(Cl)c2[C@@H]1O [Example 1, (1S, 2R)-8-chloro-1-hydroxy-1,2,3,4-tetrahydronaphthalen-2-yl carbamate] | >150 mg/kg | 74.9% | 101 mg/kg | 46.1 mg/kg | 36.3 mg/kg |
| NC(=O)O[C@@H]1c2c(Cl)cccc2CC[C@@H]1O [Example 19, (1R, 2S)-8-chloro-2-hydroxy-1,2,3,4-tetrahydronaphthalen-1-yl carbamate] | >200 mg/kg | 51.6% | > 100 mg/kg | 30 mg/kg | 50 mg/kg |
